Laboratory results published in ChEMBL document CHEMBL1126957, “Structure-activity relationship within a series of pyrazolidinone antibacterial agents. 1. Effect of nuclear modification on in vitro activity” (1993).
Converted amounts (≈) assume the structure as drawn.

How the values were obtained:
Assay type in all cases: functional
Escherichia coli = test: In vitro antibacterial activity against Escherichia coli EC14
Klebsiella pneumoniae = test: In vitro antibacterial activity against Klebsiella X26
Pseudomonas aeruginosa = test: In vitro antibacterial activity against Pseudomonas X239
Streptococcus pneumoniae = test: In vitro antibacterial activity against Streptococcus pneumoniae PARK
Staphylococcus aureus = test: In vitro antibacterial activity against Staphylococcus aureus X1.1
Serratia marcescens = test: In vitro antibacterial activity against Serratia X99
Haemophilus influenzae = test: In vitro antibacterial activity against Haemophilus influenza C.L
Klebsiella aerogenes = test: In vitro antibacterial activity against Enterobacter aerogenes C32

Structure (SMILES) | MIC (Escherichia coli) | MIC (Klebsiella pneumoniae) | MIC (Pseudomonas aeruginosa) | MIC (Streptococcus pneumoniae) | MIC (Staphylococcus aureus) | MIC (Serratia marcescens) | MIC (Haemophilus influenzae) | MIC (Klebsiella aerogenes)
CO/N=C(\C(=O)NC1CN2CC(C(=O)OCc3ccccc3)=C(C(=O)O)N2C1=O)c1csc(N)n1 (configuration not stated) | 64 µg/mL (≈ 128 µM) | 64 µg/mL (≈ 128 µM) | > 128 µg/mL | 64 µg/mL (≈ 128 µM) | 128 µg/mL (≈ 256 µM) | 64 µg/mL (≈ 128 µM) | 64 µg/mL (≈ 128 µM) | 64 µg/mL (≈ 128 µM)
CO/N=C(\C(=O)NC1CN2CCC(C(C)=O)=C(C(=O)O)N2C1=O)c1csc(N)n1 (configuration not stated) | > 128 µg/mL | > 128 µg/mL | > 128 µg/mL | > 128 µg/mL | > 128 µg/mL | > 128 µg/mL | > 128 µg/mL | > 128 µg/mL
CO/N=C(\C(=O)NC1CN2CC(C(=O)OC)=C(C(=O)O)N2C1=O)c1csc(N)n1 (configuration not stated) | 8 µg/mL (≈ 18.9 µM) | 8 µg/mL (≈ 18.9 µM) | > 128 µg/mL | 8 µg/mL (≈ 18.9 µM) | > 128 µg/mL | 8 µg/mL (≈ 18.9 µM) | 32 µg/mL (≈ 75.4 µM) | 16 µg/mL (≈ 37.7 µM)
CCOC(=O)C1=C(C(=O)O)N2C(=O)C(NC(=O)/C(=N\OC)c3csc(N)n3)CN2C1 (configuration not stated) | 16 µg/mL (≈ 36.5 µM) | 8 µg/mL (≈ 18.2 µM) | > 128 µg/mL | 8 µg/mL (≈ 18.2 µM) | > 128 µg/mL | 16 µg/mL (≈ 36.5 µM) | 32 µg/mL (≈ 73 µM) | 32 µg/mL (≈ 73 µM)
CCCOC(=O)C1=C(C(=O)O)N2C(=O)C(NC(=O)/C(=N\OC)c3csc(N)n3)CN2C1 (configuration not stated) | 32 µg/mL (≈ 70.7 µM) | 8 µg/mL (≈ 17.7 µM) | > 128 µg/mL | 8 µg/mL (≈ 17.7 µM) | > 128 µg/mL | 32 µg/mL (≈ 70.7 µM) | 32 µg/mL (≈ 70.7 µM) | 64 µg/mL (≈ 141 µM)
CCC(=O)C1=C(C(=O)O)N2C(=O)C(NC(=O)/C(=N\OC)c3csc(N)n3)CN2C1 (configuration not stated) | 4 µg/mL (≈ 9.47 µM) | 2 µg/mL (≈ 4.73 µM) | > 128 µg/mL | 2 µg/mL (≈ 4.73 µM) | 64 µg/mL (≈ 152 µM) | 4 µg/mL (≈ 9.47 µM) | 8 µg/mL (≈ 18.9 µM) | 8 µg/mL (≈ 18.9 µM)
CO/N=C(\C(=O)NC1CN2CC(C(C)=O)=C(C(=O)O)N2C1=O)c1csc(N)n1 (configuration not stated) | 2 µg/mL (≈ 4.9 µM) | 1 µg/mL (≈ 2.45 µM) | > 128 µg/mL | 1 µg/mL (≈ 2.45 µM) | 32 µg/mL (≈ 78.4 µM) | 4 µg/mL (≈ 9.79 µM) | 8 µg/mL (≈ 19.6 µM) | 2 µg/mL (≈ 4.9 µM)
CO/N=C(\C(=O)NC1CN2CCC(C(=O)OC)=C(C(=O)O)N2C1=O)c1csc(N)n1 (configuration not stated) | > 128 µg/mL | > 128 µg/mL | > 128 µg/mL | > 128 µg/mL | > 128 µg/mL | > 128 µg/mL | > 128 µg/mL | > 128 µg/mL

The next compounds have a lower MIC (Escherichia coli) than those just listed; values first:

MIC (Escherichia coli) | MIC (Klebsiella pneumoniae) | MIC (Pseudomonas aeruginosa) | MIC (Streptococcus pneumoniae) | MIC (Staphylococcus aureus) | MIC (Serratia marcescens) | MIC (Haemophilus influenzae) | MIC (Klebsiella aerogenes) | Structure (SMILES)
0.125 µg/mL (≈ 0.281 µM) | 0.25 µg/mL (≈ 0.562 µM) | > 128 µg/mL | 0.25 µg/mL (≈ 0.562 µM) | 64 µg/mL (≈ 144 µM) | 0.25 µg/mL (≈ 0.562 µM) | 2 µg/mL (≈ 4.5 µM) | 0.25 µg/mL (≈ 0.562 µM) | CO/N=C(\C(=O)NC1CN2CC(S(C)(=O)=O)=C(C(=O)O)N2C1=O)c1csc(N)n1 (configuration not stated)
0.25 µg/mL (≈ 0.639 µM) | 0.25 µg/mL (≈ 0.639 µM) | > 128 µg/mL | 0.25 µg/mL (≈ 0.639 µM) | 64 µg/mL (≈ 164 µM) | 1 µg/mL (≈ 2.56 µM) | 0.5 µg/mL (≈ 1.28 µM) | 1 µg/mL (≈ 2.56 µM) | CO/N=C(\C(=O)N[C@H]1CN2CC(C#N)=C(C(=O)O)N2C1=O)c1csc(N)n1
0.5 µg/mL (≈ 0.987 µM) | 0.125 µg/mL (≈ 0.247 µM) | > 128 µg/mL | 0.125 µg/mL (≈ 0.247 µM) | 32 µg/mL (≈ 63.2 µM) | 1 µg/mL (≈ 1.97 µM) | 0.5 µg/mL (≈ 0.987 µM) | 1 µg/mL (≈ 1.97 µM) | CO/N=C(\C(=O)N[C@H]1CN2CC(S(=O)(=O)c3ccccc3)=C(C(=O)O)N2C1=O)c1csc(N)n1
0.06 µg/mL (≈ 0.135 µM) | 0.125 µg/mL (≈ 0.281 µM) | > 128 µg/mL | 0.25 µg/mL (≈ 0.562 µM) | 32 µg/mL (≈ 72 µM) | 0.125 µg/mL (≈ 0.281 µM) | 0.5 µg/mL (≈ 1.12 µM) | 0.25 µg/mL (≈ 0.562 µM) | CO/N=C(\C(=O)N[C@H]1CN2CC(S(C)(=O)=O)=C(C(=O)O)N2C1=O)c1csc(N)n1
0.125 µg/mL (≈ 0.273 µM) | 0.125 µg/mL (≈ 0.273 µM) | > 128 µg/mL | 0.125 µg/mL (≈ 0.273 µM) | 32 µg/mL (≈ 69.8 µM) | 0.25 µg/mL (≈ 0.545 µM) | 0.5 µg/mL (≈ 1.09 µM) | 0.25 µg/mL (≈ 0.545 µM) | CCS(=O)(=O)C1=C(C(=O)O)N2C(=O)[C@@H](NC(=O)/C(=N\OC)c3csc(N)n3)CN2C1
0.5 µg/mL (≈ 1.28 µM) | 0.5 µg/mL (≈ 1.28 µM) | > 128 µg/mL | 0.5 µg/mL (≈ 1.28 µM) | 64 µg/mL (≈ 164 µM) | 2 µg/mL (≈ 5.11 µM) | 1 µg/mL (≈ 2.56 µM) | 2 µg/mL (≈ 5.11 µM) | CO/N=C(\C(=O)NC1CN2CC(C#N)=C(C(=O)O)N2C1=O)c1csc(N)n1 (configuration not stated)
